From the supplement of paper PMC10307832

Legend:
Assay in all cases: relative viability (nuclei count vs DMSO), 5 days (fraction); higher = more cells survive
XMD8-85 + Foretinib = compound: CN1CCN(CC1)C2=CC(=C(C=C2)NC3=NC=C4C(=N3)N(C5=CC=CC=C5C(=O)N4C)C)OC [XMD8-85] + COc1cc2c(Oc3ccc(NC(=O)C4(C(=O)Nc5ccc(F)cc5)CC4)cc3F)ccnc2cc1OCCCN1CCOCC1 [Foretinib] (partner 0.25 µM)
Summary of the method: (§1)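 Lung cancer cell lines were pin-tool dosed in 1536-well plates on the day after seeding, with either a lone drug or a fixed anchor-drug dose plus five library-drug doses (not always all listed) in √10 steps. Nuclei were counted on 4× images after 5 days. Relative viability is the ratio of treated-well to vehicle-well nuclei counts, with each value a median of duplicate plates.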

XMD8-85 + Crizotinib = compound: CN1CCN(CC1)C2=CC(=C(C=C2)NC3=NC=C4C(=N3)N(C5=CC=CC=C5C(=O)N4C)C)OC [XMD8-85] + C[C@@H](Oc1cc(-c2cnn(C3CCNCC3)c2)cnc1N)c1c(Cl)ccc(F)c1Cl [Crizotinib] (partner 1 µM)
Summary of the method: as §1

XMD8-85 + Linsitinib = compound: CN1CCN(CC1)C2=CC(=C(C=C2)NC3=NC=C4C(=N3)N(C5=CC=CC=C5C(=O)N4C)C)OC [XMD8-85] + C[C@]1(O)C[C@@H](c2nc(-c3ccc4ccc(-c5ccccc5)nc4c3)c3c(N)nccn32)C1 [Linsitinib] (partner 1 µM)
Summary of the method: as §1

4EGI-1 + Pictilisib = compound: O=C(O)C(Cc1ccccc1[N+](=O)[O-])=NNc1nc(-c2ccc(Cl)c(Cl)c2)cs1 (mixture of isomers) [4EGI-1] + CS(=O)(=O)N1CCN(Cc2cc3nc(-c4cccc5[nH]ncc45)nc(N4CCOCC4)c3s2)CC1 [Pictilisib] (partner 1 µM)
Summary of the method: as §1

Cell Line	relative viability (XMD8-85 + Foretinib; first compound 0.08 µM)	relative viability (XMD8-85 + Foretinib; first compound 0.253 µM)	relative viability (XMD8-85 + Foretinib; first compound 0.8 µM)	relative viability (XMD8-85 + Foretinib; first compound 2.53 µM)	relative viability (XMD8-85 + Foretinib; first compound 8 µM)	relative viability (XMD8-85 + Crizotinib; first compound 0.08 µM)	relative viability (XMD8-85 + Crizotinib; first compound 0.253 µM)	relative viability (XMD8-85 + Crizotinib; first compound 0.8 µM)	relative viability (XMD8-85 + Crizotinib; first compound 2.53 µM)	relative viability (XMD8-85 + Crizotinib; first compound 8 µM)	relative viability (XMD8-85 + Linsitinib; first compound 0.08 µM)	relative viability (XMD8-85 + Linsitinib; first compound 0.253 µM)	relative viability (XMD8-85 + Linsitinib; first compound 0.8 µM)	relative viability (XMD8-85 + Linsitinib; first compound 2.53 µM)	relative viability (XMD8-85 + Linsitinib; first compound 8 µM)	relative viability (4EGI-1 + Pictilisib; first compound 0.5 µM)	relative viability (4EGI-1 + Pictilisib; first compound 1.581 µM)	relative viability (4EGI-1 + Pictilisib; first compound 5 µM)	relative viability (4EGI-1 + Pictilisib; first compound 15.81 µM)	relative viability (4EGI-1 + Pictilisib; first compound 50 µM)
201T	1.13	1.24	1.13	0.733	0.703	1.02	1.04	1.03	1.03	0.949	1	1.05	0.994	1.05	1.01	0.702	0.655	0.707	0.638	0.603
A549	1.02	0.869	1.11	1.05	0.913	0.704	0.711	0.872	0.855	0.426	0.602	0.476	0.579	0.592	0.594	0.456	0.454	0.603	0.433	0.0907
A-427	1.22	1.03	1.12	0.889	0.828	0.897	0.934	0.922	1.05	0.56	1.24	1.18	1.11	1.16	1.02	0.855	0.409	0.705	0.589	0.364
ABC-1	0.871	0.9	1.41	0.947	0.578	1.3	0.882	1.41	0.994	0.49	0.825	0.777	0.755	0.681	0.406	0.898	0.647	0.724	0.359	0.268
BEN	0.729	0.543	0.509	0.438	0.304	0.744	0.865	–	0.608	0.447	0.692	0.923	0.802	0.683	0.584	0.594	0.656	0.667	0.51	0.46
CAL-12T	1.18	1.17	1.24	1.06	0.346	0.357	0.664	0.779	0.474	0.15	0.677	0.656	0.802	0.808	0.595	–	–	0.431	0.347	0.225
COR-L23	1.02	1.05	1.06	0.998	0.773	0.739	0.561	0.723	0.631	0.299	0.972	0.989	1.02	0.99	0.497	0.96	0.549	0.827	0.491	0.135
COR-L 105	1.21	1.14	1.08	0.672	0.387	–	0.807	0.793	0.455	0.255	0.913	1.02	0.779	0.902	0.372	0.464	0.356	0.447	0.342	0.325
Calu-6	0.858	0.948	0.879	0.804	0.674	0.689	0.607	0.894	–	0.396	0.985	0.946	0.994	0.894	0.788	0.969	0.937	0.825	0.79	0.198
ChaGo-K-1	0.823	1.01	0.93	0.867	0.774	1.08	1.15	1.44	0.887	–	–	–	–	–	–	0.612	–	0.759	0.453	0.219
EBC-1	0.104	0.0951	0.112	0.0978	0.0972	0.197	0.189	0.184	0.186	0.114	0.683	0.856	0.753	0.811	0.293	0.519	0.405	0.416	0.269	0.19
EKVX	0.716	0.864	0.836	0.971	0.664	0.892	0.985	1.12	1	0.886	0.808	1.06	1.03	1.18	0.851	0.443	0.371	0.442	0.262	0.405
EMC-BAC-2	1.1	1.05	0.975	0.965	0.754	0.748	–	0.794	0.662	0.72	0.851	0.803	0.793	0.797	0.813	0.642	0.492	0.579	0.514	0.502
EPLC-272H	0.619	0.717	0.751	0.47	0.436	–	0.678	1.03	0.947	0.691	–	1.24	1.02	1.2	0.912	0.338	0.306	0.369	0.293	0.205
H3255	1.03	0.917	0.892	0.931	0.627	0.808	0.853	0.822	0.902	0.52	0.994	0.872	0.955	0.946	0.629	0.578	0.431	0.516	0.361	0.453
HARA	1.09	0.701	0.97	0.782	0.583	1.21	0.885	1.3	0.94	0.417	1.06	0.933	0.945	0.668	0.243	0.48	0.428	0.46	0.375	0.266
